# Results from US5756512A, “Treatment of non-small cell lung carcinoma” (SmithKline Beecham Corporation, priority 1996, dated 1998).
# Legend:
# DNA topoisomerase I = details: background statement; cited from earlier work
# [1] = system: non-small cell lung carcinoma; test: clinical response, patient with metastatic non-small cell lung carcinoma, tumor size by CAT scan; format: in vivo, human; details: for response to pretreatment: pretreatment with VP-16 (etoposide) and cisplatin, same patient before topotecan
# Procedure: One human patient with metastatic non-small cell lung carcinoma, who was refractory to pretreatment with VP-16 (etoposide) and cisplatin, received a course of therapy comprising intravenous administration of 1.5 mg of topotecan/m^2 of body surface area per day for five consecutive days. This course of therapy was repeated at least five more times at twenty-one day intervals (from the date of initiation of therapy) for a total of at least […] treatments. Tumor size regression was evaluated by CAT (computerized axial tomography) scan.
# [2] = system: non-small cell lung carcinoma; test: clinical response, second patient with non-small cell lung carcinoma; format: in vivo, human
# [3] = qualitative statement; cited from earlier work
# [4] = stability of diluted topotecan solutions in plastic bags at room temperature (percentage of initial topotecan remaining); format: physicochemical; details: 0 hrs
# Procedure: Stability--Shelf life surveillance of the intact vials is ongoing. Because the single-use lyophilized dosage form contains no antibacterial preservatives, it is advised that the reconstituted solution be discarded eight hours after initial entry into the vial. Further dilutions of the reconstituted solution to concentrations of 0.02 mg/ml and 0.1 mg.ml in 5% Dextrose Injection, USP, ("D5W") or 0.9% Sodium Chloride Injection, USP, ("NS") in plastic bags stored at room temperature yielded the following stability results:
# PERCENTAGE OF INITIAL TOPOTECAN REMAINING IN SOLUTION
smiles,measurement,setting,value
"CC[C@@]1(O)C(=O)OCc2c1cc1n(c2=O)Cc2cc3ccccc3nc2-1 [camptothecin, reference compound]",inhibition of topoisomerase I,DNA topoisomerase I,known to inhibit topoisomerase I
N.N.[Cl][Pt][Cl] [cisplatin],response to pretreatment,[1],refractory
COc1cc([C@@H]2c3cc4c(cc3[C@@H](O[C@@H]3O[C@@H]5CO[C@@H](C)O[C@H]5[C@H](O)[C@H]3O)[C@H]3COC(=O)[C@H]23)OCO4)cc(OC)c1O [etoposide],response to pretreatment,[1],refractory
"CC(O)CCC(=O)c1ccoc1 (stereo not drawn) [ipomeanol, reference compound]",response to previous ipomeanol,[2]; same patient before topotecan,failed to respond
"CC[C@@]1(O)C(=O)OCc2c1cc1n(c2=O)Cc2cc3c(CN(C)C)c(O)ccc3nc2-1 [topotecan, (S)-9-dimethylaminomethyl-10-hydroxycamptothecin]",response (measurable tumor size regression),"[2]; one patient, prior radiation and ipomeanol, at least one course i.v. 1.5 mg/m^2 per day, five consecutive days",a temporary response (measurable tumor size regression) was observed
same,inhibition of topoisomerase I,DNA topoisomerase I,specific inhibitor of DNA topoisomerase I
same,water solubility,[3],water-soluble
same,tumor size regression (CAT scan),"[1]; one patient refractory to VP-16 and cisplatin, i.v. 1.5 mg/m^2 per day, five consecutive days, repeated at twenty-one day intervals, after six treatment regimen",a complete regression of the disease was observed
same,Percentage of initial topotecan remaining in solution,"[4]; D5W, 0.02 mg/ml",100.00%
same,Percentage of initial topotecan remaining in solution,"[4]; D5W, 0.1 mg/ml",100.00%
same,Percentage of initial topotecan remaining in solution,"[4]; NS, 0.02 mg/ml",100.00%
same,Percentage of initial topotecan remaining in solution,"[4]; NS, 0.1 mg/ml",100.00%
